Results: publication PMC10819887, “Production of AFB1 High-Specificity Monoclonal Antibody by Three-Stage Screening Combined with the De-Homologation of Antibodies and the Development of High-Throughput icELISA” (Toxins, 2023)
Where “and” joins values, the source holds several entries; their conditions need not be identical. Identical values can stand only once.

Legend:
anti-AFB1 mAb (ZFG8) = assay type: binding, mouse
ZFG8 monoclonal antibody = test: icELISA working-condition optimization and standard curves (ZFG8, AFB1-BSA); assay type: binding, mouse

Substance: aflatoxin B1 [AFB1]
- Cross-Reactivity (%) (anti-AFB1 mAb (ZFG8)): 100%
- IC50 (anti-AFB1 mAb (ZFG8)): 0.3162 ng/mL
- IC20-IC80 (ZFG8 monoclonal antibody): 0.04197 to 0.6299 ng/mL and 0.03329 to 0.9399 ng/mL
- IC20-IC80 (linear detection range) (ZFG8 monoclonal antibody): 0.0422 to 1.293 ng/mL
- IC50 (ZFG8 monoclonal antibody; pH 7.4): 0.1811 ng/mL
